The results in this text go back to patent US20230066011A1, “PYRROLOPYRIMIDINE DERIVATIVE, AND PHARMACEUTICAL COMPOSITION FOR PREVENTING OR TREATING PROTEIN KINASE-RELATED DISEASE COMPRISING SAME AS ACTIVE INGREDIENT” (VORONOI CO., LTD., priority 2019, published 2023).

One may read the IC50 as the concentration needed to halve the response being measured.

Common to all, as to assay type: biochemical
Assay [1] addresses T1, human GST-DYRK1A (Homo sapiens, UniProt Q13627).
T1 construct: purified human GST-DYRK1A (full length, Thermo Scientifics) enzyme; purchased Thermo Scientifics
The assay can be described thus: GST-DYRK1A enzyme inhibition, ADP-Glo kinase assay. To be noted: ATP 10 μM, GST-DYRK1A full length, read-out: DYRK1 IC50. The method in brief: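 Full-length enzyme (10 ng) was incubated with 10 μM ATP and a specific substrate for 1 h at 25 °C in 40 mM Tris-HCl pH 7.4, 20 mM MgCl2, 0.5 mg/mL BSA, 50 μM DTT. Luminescence was read against a solvent control, and IC50 values were derived from 3 data sets.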

The target in assay [2] is T2, human GST-CLK1 (Homo sapiens, UniProt P49759).
T2 construct: purified human GST-CLK1 (129-end, SignalChem) enzyme; purchased SignalChem
T2 sequence (P49759 129-484 limits assumed): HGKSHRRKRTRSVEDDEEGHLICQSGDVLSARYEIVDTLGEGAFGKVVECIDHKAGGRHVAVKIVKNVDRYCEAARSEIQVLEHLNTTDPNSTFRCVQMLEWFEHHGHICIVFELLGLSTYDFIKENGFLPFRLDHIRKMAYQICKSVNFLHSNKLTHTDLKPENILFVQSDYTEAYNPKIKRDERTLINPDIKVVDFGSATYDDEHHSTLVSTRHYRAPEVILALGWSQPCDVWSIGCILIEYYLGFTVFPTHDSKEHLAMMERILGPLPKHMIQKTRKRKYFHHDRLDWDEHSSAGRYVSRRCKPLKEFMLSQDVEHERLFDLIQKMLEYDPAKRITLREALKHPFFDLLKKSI
The assay can be described thus: GST-CLK1 enzyme inhibition, ADP-Glo kinase assay. To be noted: ATP 10 μM, GST-CLK1 129-end. The method in brief: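 ADP-Glo luminescence read-out, relative to untreated solvent control, gave IC50 (nM) from triplicate data sets. Reactions ran an hour at 25° C with 3 ng GST-CLK1 (residues 129-end), 10 μM ATP and specific substrate in Tris-HCl pH 7.4 buffer with MgCl2, BSA and DTT.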
On the technique in general: ADP-Glo turns the ADP formed in a reaction into a luminescent signal.

For assay [3], the target named is LRRK2 (G2019S) (Homo sapiens, UniProt Q5S007, G2019S). The assay can be described thus: LRRK2 G2019S enzyme inhibition, ADP-Glo kinase assay. The arrangement: purchased SignalChem L10-12GG. To be noted: ATP 25 μM. The procedure: To evaluate an inhibitory activity of the compound according to the present invention against LRRK2, LRRK2 (G2019S), DYRK1, CLK1, and TTK kinases, experiments were performed as follows.
Chain of LRRK2 (G2019S) (Q5S007 970-2527 G2019S limits assumed): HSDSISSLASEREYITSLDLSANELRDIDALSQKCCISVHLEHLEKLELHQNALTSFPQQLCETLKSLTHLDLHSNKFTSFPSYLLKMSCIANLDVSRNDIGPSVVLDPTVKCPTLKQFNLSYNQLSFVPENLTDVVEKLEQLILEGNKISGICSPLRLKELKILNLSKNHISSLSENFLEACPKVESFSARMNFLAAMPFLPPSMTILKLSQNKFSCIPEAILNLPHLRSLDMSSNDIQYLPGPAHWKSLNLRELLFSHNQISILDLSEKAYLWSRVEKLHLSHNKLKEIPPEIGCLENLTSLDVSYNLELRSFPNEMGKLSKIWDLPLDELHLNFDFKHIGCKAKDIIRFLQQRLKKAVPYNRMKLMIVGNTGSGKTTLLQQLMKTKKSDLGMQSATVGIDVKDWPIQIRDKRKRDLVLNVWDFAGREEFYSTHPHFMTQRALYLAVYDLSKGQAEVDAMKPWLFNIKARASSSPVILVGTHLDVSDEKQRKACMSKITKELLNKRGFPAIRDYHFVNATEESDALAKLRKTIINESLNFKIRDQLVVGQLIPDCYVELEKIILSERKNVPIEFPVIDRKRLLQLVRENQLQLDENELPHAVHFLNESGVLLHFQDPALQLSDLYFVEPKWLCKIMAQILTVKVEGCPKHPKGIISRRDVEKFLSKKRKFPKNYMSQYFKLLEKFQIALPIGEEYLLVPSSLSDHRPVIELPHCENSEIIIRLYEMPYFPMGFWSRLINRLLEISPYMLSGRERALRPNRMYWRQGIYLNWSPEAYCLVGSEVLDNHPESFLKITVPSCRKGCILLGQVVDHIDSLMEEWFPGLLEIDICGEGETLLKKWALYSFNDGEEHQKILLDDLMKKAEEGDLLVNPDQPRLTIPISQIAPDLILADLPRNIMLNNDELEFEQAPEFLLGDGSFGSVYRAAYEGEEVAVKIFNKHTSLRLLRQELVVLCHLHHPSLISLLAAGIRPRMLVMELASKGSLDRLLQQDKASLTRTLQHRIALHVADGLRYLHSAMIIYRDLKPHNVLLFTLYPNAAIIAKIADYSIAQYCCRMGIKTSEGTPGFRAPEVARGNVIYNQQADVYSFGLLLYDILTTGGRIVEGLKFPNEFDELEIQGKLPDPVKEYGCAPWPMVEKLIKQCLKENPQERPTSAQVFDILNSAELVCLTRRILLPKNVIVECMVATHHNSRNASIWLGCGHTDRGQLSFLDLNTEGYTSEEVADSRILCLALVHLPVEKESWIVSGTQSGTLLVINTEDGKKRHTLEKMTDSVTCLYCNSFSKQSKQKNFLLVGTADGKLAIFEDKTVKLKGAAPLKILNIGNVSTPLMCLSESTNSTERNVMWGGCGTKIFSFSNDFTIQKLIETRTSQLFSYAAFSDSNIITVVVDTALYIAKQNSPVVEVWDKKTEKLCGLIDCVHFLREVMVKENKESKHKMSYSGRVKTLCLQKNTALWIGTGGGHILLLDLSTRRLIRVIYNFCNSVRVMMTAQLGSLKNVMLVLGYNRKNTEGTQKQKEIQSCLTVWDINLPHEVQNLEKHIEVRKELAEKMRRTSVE
Each of the Example compounds was reacted with a purified human LRRK2 G2019S (L10-12GG, SignalChem) enzyme to evaluate an ability to inhibit an enzyme using a method as described below. A composition of 40 mM Tris-HCl (pH 7.4), 20 mM MgCl2, 0.5 mg/mL BSA, and 50 μM DTT was used as a reaction buffer, and all reactions of test substances were performed in the reaction buffer. Each of the compounds was diluted […] from a 10 mM DMSO stock using a serial dilution method, and enzyme activities were measured at final compound concentrations of 50, 10, 2, 0.4, 0.08, 0.016, 0.0032, 0.00064, 0.000128, 0.0000256, 0.00000512, and 0.000001024 μM. In the test, purified ATP (25 μM) and an enzyme substrate (0.2 μg) were reacted with a human LRRK2 G2019S (16 ng) enzyme at 25° C. for 2 hours, and the enzyme activities were then determined using an in vitro ADP-Glo™ kinase assay (Promega). An enzyme-activity reaction solution, an ADP-Glo reaction solution, and an enzyme-ability detection solution were reacted at a ratio of 2:2:1 to measure a degree of inhibition of the enzyme activity with luminescence. The degree of inhibition of the enzyme activity according to the treatment concentration of each of the compounds was calculated based on the fluorescence of the enzyme activity of the solvent control which was not treated with the compound. In this case, the concentration of each of the compounds inhibiting 50% of the enzyme activity was determined to be an IC50 (nM) value, and calculated using Prism (Version 5.01; GraphPad) software.

Consider `COc1cc(S(C)(=O)=O)ccc1Nc1nc(NC(C)C)c2cc[nH]c2n1` [Example 14, N^4-isopropyl-N^2-(2-methoxy-4-(methylsulfonyl)phenyl)-7H-pyrrolo[2,3-d]pyrimidine-2,4-diamine 2,2,2-trifluoroacetate], for which the IC50 is 301 to 1000 nM in assay [1], 301 to 1000 nM in assay [2] and less than 100 nM in assay [3].
As for `COc1cc(S(C)(=O)=O)ccc1Nc1nc(N[C@@H]2CCOC2)c2c(C(F)(F)F)c[nH]c2n1` [Example 210, (R)-N^2-(2-methoxy-4-(methylsulfonyl)phenyl)-N^4-(tetrahydrofuran-3-yl)-5-(trifluoromethyl)-7H-pyrrolo[2,3-d]pyrimidine-2,4-diamine], the IC50 in assay [1] was 301 to 1000 nM; in assay [2], 301 to 1000 nM; in assay [3], less than 100 nM.
For `N#Cc1c[nH]c2nc(Nc3ccc(C(=O)N4CCN(C5COC5)CC4)c4c3OCCO4)nc(NC3CCC3)c12` [Example 289, 4-(cyclo-butylamino)-2-((8-(4-(oxetan-3-yl)piperazine-1-carbonyl)-2,3-dihydrobenzo[b] [1,4]dioxin-5-yl)amino)-7H-pyrrolo[2,3-d]pyrimidine-5-carbonitrile], the values for the IC50 in assay [1], in assay [2] and in assay [3] were 301 to 1000 nM, less than 100 nM and less than 100 nM, respectively.
For the compound `O=C(c1ccc(Nc2nc(NC3CCCC3)c3cc[nH]c3n2)c2c1OCCO2)N1CCOCC1` [Example 48, (8-((4-(cyclopentylamino)-7H-pyrrolo[2,3-d]pyrimidin-2-yl)amino)-2,3-dihydrobenzo[b][1,4]dioxin-5-yl)(morpholino)methanone], the concentration for half-maximal inhibition (IC50) in assay [1] was 301 to 1000 nM; in assay [2], 301 to 1000 nM; in assay [3], less than 100 nM.
As for `O=C(c1ccc(Nc2nc(NC3CC3)c3cc[nH]c3n2)c2c1OCCO2)N1CCOCC1` [Example 56, (8-((4-(cyclopropylamino)-7H-pyrrolo[2,3-d]pyrimidin-2-yl)amino)-2,3-dihydrobenzo[b][1,4]dioxin-5-yl)(morpholino)methanone], the figures for the IC50 in assay [1], in assay [2] and in assay [3] were 301 to 1000 nM, 301 to 1000 nM and less than 100 nM, respectively.
Consider `CC[C@H](C)Nc1nc(Nc2ccc(S(=O)(=O)N3CCOCC3)cc2OC)nc2[nH]ccc12` [Example 60, (S)-N^4-(sec-butyl)-N^2-(2-methoxy-4-(morpholinosulfonyl)phenyl)-7H-pyrrolo[2,3-d]pyrimidine-2,4-diamine], for which the IC50 lay within 301 to 1000 nM in assay [1], 301 to 1000 nM in assay [2] and 101 to 300 nM in assay [3].
As to `O=C(c1ccc(Nc2nc(NC3CCCC3)c3c(C(F)(F)F)c[nH]c3n2)c2c1CCO2)N1CCC(N2CCOCC2)CC1` [Example 459, (7-((4-(cyclo-pentylamino)-5-(trifluoromethyl)-7H-pyrrolo[2,3-d]pyrimidin-2-yl)amino)-2,3-dihydrobenzo-furan-4-yl)(4-morpho-linopiperidin-1-yl)methanone], the results for the IC50 in assay [1], in assay [2] and in assay [3] were 301 to 1000 nM, 301 to 1000 nM and less than 100 nM, respectively.
For the compound `COc1cc(S(=O)(=O)N2CCOCC2)ccc1Nc1nc(NC2CCOCC2)c2c(C#N)c[nH]c2n1` [Example 76, 2-((2-methoxy-4-(morpholinosulfonyl)phenyl)amino)-4-((tetrahydro-2H-pyran-4-yl)amino)-7H-pyrrolo[2,3-d]pyrimidine-5-carbonitrile], the results for the IC50 in assay [1], in assay [2] and in assay [3] were 301 to 1000 nM, 301 to 1000 nM and less than 100 nM, respectively.
On to `COc1cc(S(C)(=O)=O)ccc1Nc1nc(NC2CCCCC2)c2cc[nH]c2n1` [Example 27, N^4-cyclohexyl-N^2-(2-methoxy-4-(methylsulfonyl)phenyl)-7H-pyrrolo[2,3-d]pyrimidine-2,4-diamine 2,2,2-trifluoroacetate], for which the IC50 in assay [1] was 301 to 1000 nM; in assay [2], 301 to 1000 nM; in assay [3], less than 100 nM.
On to `COc1cc(P2(=O)CCN(C3CC3)CC2)ccc1Nc1nc(NCCS(C)(=O)=O)c2c(C(F)(F)F)c[nH]c2n1` [Example 426, 1-cyclopropyl-4-(3-methoxy-4-((4-((2-(methyl-sulfonyl)eth-yl)amino)-5-(trifluoromethyl)-7H-pyrrolo[2,3-d]pyrimidin-2-yl)amino)phenyl)-1,4-azaphosphinane 4-oxide], for which the IC50 in assay [1], in assay [2] and in assay [3] was less than 100 nM each time.
As for `COc1cc(S(C)(=O)=O)ccc1Nc1nc(NC2CC2)c2cc[nH]c2n1` [Example 55, N^4-cyclopropyl-N^2-(2-methoxy-4-(methylsulfonyl)phenyl)-7H-pyrrolo[2,3-d]pyrimidine-2,4-diamine], the IC50 is 301 to 1000 nM in assay [1], 301 to 1000 nM in assay [2] and less than 100 nM in assay [3].
In the case of `CC[C@H](C)Nc1nc(Nc2ccc(C(=O)N3CCOCC3)c3c2OCC3)nc2[nH]cc(C(F)(F)F)c12` [Example 451, (S)-(7-((4-(sec-butylamino)-5-(trifluoromethyl)-7H-pyrrolo[2,3-d]pyrimidin-2-yl)amino)-2,3-dihydrobenzo-furan-4-yl) (morpholino) methanone], the IC50 was 301 to 1000 nM in assay [1], 301 to 1000 nM in assay [2] and less than 100 nM in assay [3].
In the case of `COc1cc(P2(=O)CCN(C3CC3)CC2)ccc1Nc1nc(NC2CCOCC2)c2c(C(F)(F)F)c[nH]c2n1` [Example 419, 1-cyclopropyl-4-(3-methoxy-4-((4-((tetrahydro-2H-pyran-4-yl)amino)-5-(trifluoro)-7H-pyrrolo[2,3-d]pyrimidin-2-yl)amino)phenyl)-1,4-azaphosphinane 4-oxide], the IC50 in assay [1] was 301 to 1000 nM; in assay [2], less than 100 nM; in assay [3], less than 100 nM.
With `O=C(c1ccc(Nc2nc(NCC3CC3)c3cc[nH]c3n2)c2c1OCCO2)N1CCOCC1` [Example 53, (8-((4-((cyclopropylmethyl)amino)-7H-pyrrolo[2,3-d]pyrimidin-2-yl)amino)-2,3-dihydrobenzo[b][1,4]dioxin-5-yl)(morpholino)methanone], the IC50 in assay [1] was 301 to 1000 nM; in assay [2] it was 301 to 1000 nM; in assay [3], less than 100 nM.
On to `COc1cc(P2(=O)CCN(C3COC3)CC2)ccc1Nc1nc(NC2CCC2)c2c(C#N)c[nH]c2n1` [Example 288, 4-(cyclo-butylamino)-2-((2-methoxy-4-(1-(oxetan-3-yl)-4-oxido-1,4-azaphosphinan-4-yl)phenyl)amino)-7H-pyrrolo[2,3-d]pyrimidine-5-carbonitrile], for which the IC50 in assay [1], in assay [2] and in assay [3] was less than 100 nM throughout.
With `CCCCNc1nc(Nc2ccc(P3(=O)CCN(C4CC4)CC3)cc2OC)nc2[nH]cc(C(F)(F)F)c12` [Example 428, 4-(4-((4-(butylamino)-5-(trifluoromethyl)-7H-pyrrolo[2,3-d]pyrimidin-2-yl)amino)-3-methoxyphenyl)-1-cyclopropyl-1,4-azaphosphinane 4-oxide], the values for the IC50 in assay [1], in assay [2] and in assay [3] were 301 to 1000 nM, 301 to 1000 nM and less than 100 nM, respectively.
For `CCNc1nc(Nc2ccc(P3(=O)CCN(C4CC4)CC3)cc2OC)nc2[nH]cc(C(F)(F)F)c12` [Example 398, 1-cyclopropyl-4-(4-((4-(ethylamino)-5-(trifluoromethyl)-7H-pyrrolo[2,3-d]pyrimidin-2-yl)amino)-3-methoxyphenyl)-1,4-azaphosphinane 4-oxide], the IC50 in assay [1] was 101 to 300 nM; in assay [2], less than 100 nM; in assay [3], less than 100 nM.
Take `N#Cc1c[nH]c2nc(Nc3ccc(C(=O)N4CCOCC4)c4c3OCCO4)nc(NC3CCCCC3)c12` [Example 248]: the 50% inhibitory concentration (IC50) in assay [1] is 301 to 1000 nM; in assay [2], 301 to 1000 nM; in assay [3], less than 100 nM.
Consider `COc1cc(P(C)(C)=O)ccc1Nc1nc(N[C@@H]2CCOC2)c2c(C(F)(F)F)c[nH]c2n1` [Example 388, (R)-(3-methoxy-4-((4-((tetrahydrofuran-3-yl)amino)-5-(trifluoromethyl)-7H-pyrrolo[2,3-d]pyrimidin-2-yl)amino)phenyl)di-methylphosphine oxide], for which the IC50 in assay [1], in assay [2] and in assay [3] was less than 100 nM throughout.
